Earlier results on two molecules are cited in patent publication US7288142B2, “Black dyes composition for ink-jet inks” (Everlight USA, Inc., priority 2005, dated 2007).

For series [1] the following is noted: as ink-jet black dye, prior art.
The conditions of series [2]: as ink-jet black dye, prior art. The source holds these as a separate data set.

In the case of C.I. Direct Black 168, the light-fastness entry in series [1] is on record as “good”. In addition, the solubility entry in series [2] is “low”. As to `Nc1cc2c(O)c(N=Nc3ccc(N=Nc4ccc(S(=O)(=O)[O-])cc4)c4ccc(S(=O)(=O)[O-])cc34)c(S(=O)(=O)[O-])cc2cc1S(=O)(=O)[O-].[Na+].[Na+].[Na+].[Na+]` [C.I. Food Black 2], in series [1], the light-fastness entry is given as “poor”.
